# Experimental data reported in patent publication US4518790A, “15-Deoxy-16-hydroxy-16-vinyl and cyclopropyl substituted prostanoic acids and congeners” (American Cyanamid Company, priority 1980, dated 1985).
# Columns and labels:
# Assay type in all cases: in vivo, guinea pigs
# [1] = test system: bronchospasms elicited by acetylcholine; assay: Bronchodilator activity (Konzett assay) against bronchospasm elicited by intravenous acetylcholine; settings: Cavia porcellus, guinea pig, three logarithmic cumulative doses, spasmogen acetylcholine i.v., read-out: Bronchodilator Activity (Konzett Assays) ED50, Spasmogenic Agent Acetylcholine
# Experimental: (§1) The compounds of this invention are useful as bronchodilators for the treatment of asthma and chronic bronchitis. Bronchodilator activity is determined in guinea pigs against bronchospasms elicited by intravenous injections of 5-hydroxytryptamine, histamine or acetylcholine by the Konzett procedure. [See J. Lulling, P. Lievens, F. El Sayed and J. Prignot, Arzneimittel-Forschung, 18, 955 (1968).]
# (§2) In Table 16 which follows bronchodilator activity for representative compounds of this invention against one or more of three spasmogenic agents is expressed as an ED50 determined from the results obtained with three logarithmic cummulative intravenous doses. In this assay, these compounds of this invention provide an effect of longer duration than does natural 1-PGE1 or 1-PGE2.
# [2] = test system: bronchospasms elicited by histamine; assay: Bronchodilator activity (Konzett assay) against bronchospasm elicited by intravenous histamine; settings: Cavia porcellus, guinea pig, three logarithmic cumulative doses, spasmogen histamine i.v., read-out: Bronchodilator Activity (Konzett Assays) ED50, Spasmogenic Agent histamine
# Experimental: as §1, §2
# [3] = test system: bronchospasms elicited by 5-hydroxytryptamine; assay: Bronchodilator activity (Konzett assay) against bronchospasm elicited by intravenous 5-hydroxytryptamine; settings: Cavia porcellus, guinea pig, three logarithmic cumulative doses, spasmogen 5-hydroxytryptamine i.v., read-out: Bronchodilator Activity (Konzett Assays) ED50, Spasmogenic Agent 5-hydroxytryptamine
# Experimental: as §1, §2
Compound,ED50 [1] [µg/kg],ED50 [2] [µg/kg],ED50 [3] [µg/kg]
"C=CC(O)(C/C=C/[C@H]1[C@H](O)CC(=O)[C@@H]1CCCCCCC(=O)O)CCCC (relative stereo) [9-Oxo-11α,16-dihydroxy-16-vinyl-13-trans-prostenoic Acid]",760,1.11,1.86
"C=CC(O)(C/C=C/[C@H]1[C@H](O)CC(=O)[C@@H]1C/C=C\CCCC(=O)O)CCCC (relative stereo) [9-oxo-11α,16-dihydroxy-16-vinyl-5-cis,13-trans-prostadienoic acid]",0.78,0.162,0.252
"C=CC(O)(C/C=C/[C@H]1[C@H](O)CC(=O)[C@@H]1C/C=C\CCCC(=O)O)CCCCC (relative stereo) [9-oxo-11α,16-dihydroxy-16-vinyl-20-methyl-5-cis,13-trans-prostadienoic acid]",4.3,2.3,2.06
"C=CC(O)(C/C=C/[C@H]1[C@H](O)CC(=O)[C@@H]1C/C=C\CCCC(=O)OC)CCCC (relative stereo) [methyl-9-oxo-11α, 16-dihydroxy-16-vinyl-5-cis, 13-trans prostadienoate]",0.302,0.212,0.354
